Data reported in patent EP2818472A1, “Imidazo[4,5-c]pyridine and pyrrolo[3,2-c]pyridine compounds as G-protein-coupled receptor kinase 5 (GRK5) modulators” (Max-Planck-Gesellschaft zur Förderung der Wissenschaften …, priority 2013, dated 2014).

tested on: beta-TC6 cells; test: Insulin HTRF assay (relative activity Ar) in beta-TC6 cells; format: cell-based, mouse; conditions: Mus musculus, Beta-TC6, 4 h, insulin HTRF, supernatant of beta-TC6 cells, incubation with test compound at 37°C for 2, 3, 4h; read-out: Ar (relative activity)
Excerpt: For further screening of compounds derived from compounds described above for their ability to regulate insulin release an insulin HTRF® (Homogeneous Time-Resolved Fluorescence; Cisbio International, France) was used. This assay is based on two antibodies against insulin binding to different epitopes of insulin. One of these antibodies is coupled to Europium (Ab-Eu-Cryptate) and the other one to the fluorophore XL665 (Ab-XL665). If the insulin is secreted into the supernatant of cell culture, both antibodies can bind to insulin and come therefore into close proximity, which allows upon excitation that energy transfer between (FRET) the long-life fluorescent donor Europium (cryptate) and the acceptors XL665. FRET increases proportionally with insulin concentration.
The automated assay protocol is as follows: • On day 1, 15k beta-TC6 cells per well were seeded for 24 or 48 h in 50 µL complete medium. On day 2 or respective on day 3, the medium is removed and cells are washed with 60 µL 1xPBS and 20 µL induction buffer is added using BioTek washer. Subsequently, 10 µL Sunitininb (5 -µM f.c.) or the test compound in induction buffer; 0.5% f.c. DMSO (CyBi-well) is transferred to the cells. The cells are then incubated at 37°C for 2, 3, 4h.
First 10 µL supernatant is transferred from the cell plates in HTRF plates (CyBi-well). 10 µL of 0, 1, 2, and 4 ng/ml insulin standard controls in assay medium is used as a control. To each well 10 µL of combined 1:25 Ab-XL665 (Acc) and 1:20 Ab-Eu-Cryptate (WellMate) are added and incubated for 120 min at RT in the dark. Finally HTRF is measured on ViewLux ultra high throughput microplate imager (PerkinElmer).
The evaluation software DataFactoty derives relative activities Ar according to the following equation: Ar = (V-R(0%control))/(R(100%control) -R0%control)) × 100 [formula]
The activity of the compounds was classified according to their Ar (relative activity) into the following ranges: […]

SMILES	Emax
CN(C)C(=O)c1ccc(-c2cc3cnc(Nc4cccc(OC(F)(F)F)c4)cc3[nH]2)cc1 [Compound 33, N,N-dimethyl-4-[6-[3-(trifluoromethoxy)anilino]-1H-pyrrolo[3,2-c]pyridin-2-yl]benzamide]	30 to 50%
CN(C)C(=O)c1ccc(-c2cc3cnc(Nc4ccc(OC(F)(F)F)cc4)cc3[nH]2)cc1 [Compound 34, N,N-dimethyl-4-[6-[4-(trifluoromethoxy)anilino]-1H-pyrrolo[3,2-c]pyridin-2-yl]benzamide]	0 to 30%
CN(C)C(=O)c1ccc(-c2cc3cnc(Nc4cccc(Oc5ccccc5)c4)cc3[nH]2)cc1 [Compound 35, N,N-dimethyl-4-[6-(3-phenoxyanilino)-1H-pyrrolo[3,2-c]pyridin-2-yl]benzamide]	0 to 30%
CC(C)c1cccc(Nc2cc3[nH]c(-c4ccc(C(=O)N(C)C)cc4)cc3cn2)c1 [Compound 36, 4-[6-(3-isopropylanilino)-1H-pyrrolo[3,2-c]pyridin-2-yl]-N,N-dimethyl-benzamide]	0 to 30%
CN(C)C(=O)c1ccc(-c2cc3cnc(Nc4ccccc4Cl)cc3[nH]2)cc1 [Compound 37, 4-[6-(2-chloroanilino)-1H-pyrrolo[3,2-c]pyridin-2-yl]-N,N-dimethyl-benzamide]	30 to 50%
CC(C)c1ccc(Nc2cc3[nH]c(-c4ccc(C(=O)N(C)C)cc4)cc3cn2)cc1 [Compound 38, 4-[6-(4-isopropylanilino)-1H-pyrrolo[3,2-c]pyridin-2-yl]-N,N-dimethyl-benzamide]	0 to 30%
CN(C)C(=O)c1ccc(-c2cc3cnc(Nc4cccc(NS(C)(=O)=O)c4)cc3[nH]2)cc1 [Compound 39, 4-[6-[3-(methanesulfonamido)anilino]-1H-pyrrolo[3,2-c]pyridin-2-yl]-N,N-dimethyl-benzamide]	50 to 100%
CN(C)C(=O)c1ccc(Nc2cc3[nH]c(-c4ccc(C(=O)N(C)C)cc4)cc3cn2)cc1 [Compound 40, 4-[6-[4-(dimethylcarbamoyl)anilino]-1H-pyrrolo[3,2-c]pyridin-2-yl]-N,N-dimethyl-benzamide]	> 100%
CC(=O)Nc1cccc(Nc2cc3[nH]c(-c4ccc(C(=O)N(C)C)cc4)cc3cn2)c1 [Compound 41, 4-[6-(3-acetamidoanilino)-1H-pyrrolo[3,2-c]pyridin-2-yl]-N,N-dimethyl-benzamide]	> 100%
CC(=O)c1cccc(Nc2cc3[nH]c(-c4ccc(C(=O)N(C)C)cc4)cc3cn2)c1 [Compound 42, 4-[6-(3-acetylanilino)-1H-pyrrolo[3,2-c]pyridin-2-yl]-N,N-dimethyl-benzamide]	50 to 100%
CN(C)C(=O)c1ccc(-c2cc3cnc(Nc4ccc(S(C)(=O)=O)cc4)cc3[nH]2)cc1 [Compound 43, N,N-dimethyl-4-[6-(4-methylsulfonylanilino)-1H-pyrrolo[3,2-c]pyridin-2-yl]benzamide]	50 to 100%
CC(C)Oc1cccc(Nc2cc3[nH]c(-c4ccc(C(=O)N(C)C)cc4)cc3cn2)c1 [Compound 44, 4-[6-(3-isopropoxyanilino)-1H-pyrrolo[3,2-c]pyridin-2-yl]-N,N-dimethyl-benzamide]	30 to 50%
COc1cccc(Nc2cc3c(cn2)cc(-c2ccc(C(=O)N(C)C)cc2)n3C)c1 [Compound 45, 4-[6-(3-methoxyanilino)-1-methyl-pyrrolo[3,2-c]pyridin-2-yl]-N,N-dimethyl-benzamide]	30 to 50%
COc1ccc(Nc2cc3c(cn2)cc(-c2ccc(C(=O)N(C)C)cc2)n3C)cc1OC [Compound 46, 4-[6-(3,4-dimethoxyanilino)-1-methyl-pyrrolo[3,2-c]pyridin-2-yl]-N,N-dimethyl-benzamide]	50 to 100%
CN(C)C(=O)c1ccc(-c2cc3cnc(Nc4cccnc4)cc3n2C)cc1 [Compound 47, N,N-dimethyl-4-[1-methyl-6-(3-pyridylamino)pyrrolo[3,2-c]pyridin-2-yl]benzamide]	50 to 100%
CN(C)C(=O)c1ccc(-c2cc3cnc(Nc4ccccc4)cc3n2C)cc1 [Compound 48, 4-(6-anilino-1-methyl-pyrrolo[3,2-c]pyridin-2-yl)-N,N-dimethyl-benzamide]	50 to 100%
CN1CCN(c2ccc(Nc3cc4c(cn3)cc(-c3ccc(C(=O)N(C)C)cc3)n4C)cc2)CC1 [Compound 49, N,N-dimethyl-4-[1-methyl-6-[4-(4-methylpiperazin-1-yl)anilino]pyrrolo[3,2-c]pyridin-2-yl]benzamide]	50 to 100%
CN(C)C(=O)c1ccc(-c2cc3cnc(Nc4cccc(N(C)C)c4)cc3n2C)cc1 [Compound 50, 4-[6-[3-(dimethylamino)anilino]-1-methyl-pyrrolo[3,2-c]pyridin-2-yl]-N,N-dimethyl-benzamide]	50 to 100%

SMILES	Emax
CN(C)C(=O)c1ccc(-c2cc3cnc(Nc4ccccn4)cc3n2C)cc1 [Compound 51, N,N-dimethyl-4-[1-methyl-6-(2-pyridylamino)pyrrolo[3,2-c]pyridin-2-yl]benzamide]	30 to 50%
CN(C)C(=O)c1ccc(-c2cc3cnc(N(C)c4ccccc4)cc3n2C)cc1 [Compound 52, N,N-dimethyl-4-[1-methyl-6-(N-methylanilino)pyrrolo[3,2-c]pyridin-2-yl]benzamide]	30 to 50%
CN(C)C(=O)c1ccc(-c2cc3cnc(Nc4cccc(O)c4)cc3n2C)cc1 [Compound 53, 4-[6-(3-hydroxyanilino)-1-methyl-pyrrolo[3,2-c]pyridin-2-yl]-N,N-dimethyl-benzamide]	50 to 100%
COc1ccc(Nc2cc3c(cn2)cc(-c2ccc(C(=O)N(C)C)cc2)n3C)cc1O [Compound 54, 4-[6-(3-hydroxy-4-methoxy-anilino)-1-methyl-pyrrolo[3,2-c]pyridin-2-yl]-N,N-dimethyl-benzamide]	50 to 100%
CN(C)C(=O)c1ccc(-c2cc3cnc(Nc4cccc(NS(C)(=O)=O)c4)cc3n2C)cc1 [Compound 55, 4-[6-[3-(methanesulfonamido)anilino]-1-methyl-pyrrolo[3,2-c]pyridin-2-yl]-N,N-dimethyl-benzamide]	50 to 100%
CC(=O)Nc1cccc(Nc2cc3c(cn2)cc(-c2ccc(C(=O)N(C)C)cc2)n3C)c1 [Compound 56, 4-[6-(3-acetamidoanilino)-1-methyl-pyrrolo[3,2-c]pyridin-2-yl]-N,N-dimethyl-benzamide]	50 to 100%
CC(=O)Nc1ccc(Nc2cc3c(cn2)cc(-c2ccc(C(=O)N(C)C)cc2)n3Cc2ccccc2)cc1 [Compound 57, 4-[6-(4-acetamidoanilino)-1-benzyl-pyrrolo[3,2-c]pyridin-2-yl]-N,N-dimethyl-benzamide]	30 to 50%
CN(C)C(=O)c1ccc(-c2cc3cnc(Nc4ccncn4)cc3n2Cc2ccccc2)cc1 [Compound 58, 4-[1-benzyl-6-(pyrimidin-4-ylamino)pyrrolo[3,2-c]pyridin-2-yl]-N,N-dimethyl-benzamide]	30 to 50%
CN(C)c1ccc(-c2cc3cnc(Nc4ccccn4)cc3n2C)cc1 [Compound 59, 2-(4-dimethylaminophenyl)-1-methyl-N-(2-pyridyl)pyrrolo[3,2-c]pyridin-6-amine]	0 to 30%
CN(C)c1ccc(-c2cc3cnc(Nc4cccc(O)c4)cc3n2Cc2ccccc2)cc1 [Compound 60, 3-[[1-benzyl-2-(4-dimethylaminophenyl)pyrrolo[3,2-c]pyridin-6-yl]amino]phenol]	0 to 30%
CN(C)c1ccc(-c2cc3cnc(Nc4ccncn4)cc3n2Cc2ccccc2)cc1 [Compound 61, 1-benzyl-2-(4-dimethylaminophenyl)-N-pyrimidin-4-yl-pyrrolo[3,2-c]pyridin-6-amine]	0 to 30%
COc1cc(Nc2cc3[nH]c(-c4ccccn4)cc3cn2)cc(OC)c1OC [Compound 62, 2-(2-pyridyl)-N-(3,4,5-trimethoxyphenyl)-1H-pyrrolo[3,2-c]pyridin-6-amine]	> 100%
COc1ccc(Nc2cc3[nH]c(-c4ccccn4)cc3cn2)c(C)c1 [Compound 63, N-(4-methoxy-2-methyl-phenyl)-2-(2-pyridyl)-1H-pyrrolo[3,2-c]pyridin-6-amine]	50 to 100%
Cc1cccc(Nc2cc3[nH]c(-c4ccccn4)cc3cn2)c1 [Compound 64, N-(m-tolyl)-2-(2-pyridyl)-1H-pyrrolo[3,2-c]pyridin-6-amine]	50 to 100%
COc1ccc(Nc2cc3[nH]c(-c4ccccn4)cc3cn2)cc1 [Compound 65, N-(4-methoxyphenyl)-2-(2-pyridyl)-1H-pyrrolo[3,2-c]pyridin-6-amine]	> 100%
FC(F)(F)c1cccc(Nc2cc3[nH]c(-c4ccccn4)cc3cn2)c1 [Compound 66, 2-(2-pyridyl)-N-[3-(trifluoromethyl)phenyl]-1H-pyrrolo[3,2-c]pyridin-6-amine]	30 to 50%
COC(=O)c1ccc(Nc2cc3[nH]c(-c4ccccn4)cc3cn2)cc1 [Compound 67, methyl 4-[[2-(2-pyridyl)-1H-pyrrolo[3,2-c]pyridin-6-yl]amino]benzoate]	30 to 50%
